Experimental data: US5994334A, “Androgen synthesis inhibitors” (priority 1997, dated 1999)
“Also recorded” adds a separate entry of the source. Like-named read-outs stand apart in the source and are kept apart here.

Experiments:
[1] = biological target: T1, Human Testicular 17α-Hydroxylase (Homo sapiens, UniProt P05093); assay: Inhibition of human testicular 17α-hydroxylase (pregnenolone substrate, testicular microsomes); type: biochemical; settings: for inhibition at 0.1 µM: read-out: % Inhibition 17α-hydroxylase, [I] = 100 nM; for inhibition at 0.4 µM: read-out: % Inhibition 17α-hydroxylase, [I] = 400 nM
T1 construct: incubating human testicular microsomes; from tissue; host or cells: human testis, microsomes
T1 sequence (P05093 1-508): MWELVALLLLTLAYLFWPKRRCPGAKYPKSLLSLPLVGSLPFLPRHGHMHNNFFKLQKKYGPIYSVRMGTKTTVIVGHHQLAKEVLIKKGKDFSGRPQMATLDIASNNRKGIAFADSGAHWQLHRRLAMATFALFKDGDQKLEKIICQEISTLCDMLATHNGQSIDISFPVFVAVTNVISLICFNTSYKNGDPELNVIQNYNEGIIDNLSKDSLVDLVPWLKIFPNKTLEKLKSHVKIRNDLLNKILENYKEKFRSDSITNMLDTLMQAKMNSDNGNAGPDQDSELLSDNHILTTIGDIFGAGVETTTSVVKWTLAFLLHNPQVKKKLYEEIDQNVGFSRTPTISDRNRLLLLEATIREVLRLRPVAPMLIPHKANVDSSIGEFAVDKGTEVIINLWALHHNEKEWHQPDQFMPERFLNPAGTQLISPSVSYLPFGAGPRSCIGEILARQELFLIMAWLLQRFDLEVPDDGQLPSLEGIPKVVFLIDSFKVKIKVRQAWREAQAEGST
Experimental: (§1) The conversion of radiolabeled pregnenolone to 17α-hydroxypregnenolone and DHEA by 17α-hydroxylase/C17,20 -lyase was measured by incubating human testicular microsomes with different concentration of test compounds. Reverse phase HPLC was used to separate and accurately quantify the amount of substrate and metabolites. The 17α-hydroxylase and C17,20 -lyase activities were calculated separately. The activity of 17α-hydroxylase was calculated from the conversion of pregnenolone to 17α-hydroxypregnenolone and DHEA and the activity of C17,20 -lyase was based on the conversion of pregnenolone to DHEA. Although 17α-hydroxypregnenolone is the substrate converted to DHEA by C17,20 -lyase, it has been reported that this 17α-hydroxy intermediate is not released from the enzyme binding site during conversion (Nakajin et al., 1981a,b). Also, there are species differences in substrate requirements. Pregnenolone is the natural substrate rather than progesterone for human testicular 17α-hydroxylase and C17,20 -lyase. Therefore, pregnenolone was used as substrate for measuring the activity of this enzyme complex.

[2] = biological target: T2, Human Testicular C17,20-lyase (Homo sapiens, UniProt P05093); assay: Inhibition of human testicular C17,20-lyase (pregnenolone substrate, testicular microsomes); type: biochemical; settings: for inhibition at 0.1 µM: read-out: % Inhibition C17,20-lyase, [I] = 100 nM; for inhibition at 0.4 µM: read-out: % Inhibition C17,20-lyase, [I] = 400 nM
T2 construct: incubating human testicular microsomes; from tissue; host or cells: human testis, microsomes
T2 sequence (P05093 1-508): T1 sequence (P05093 1-508)
Experimental: as §1

[3] = biological target: T3, human 17α-hydroxylase/C17,20-lyase (Homo sapiens, UniProt P05093); assay: Inhibition of human testicular 17α-hydroxylase/C17,20-lyase (enzyme complex as a whole); type: biochemical
T3 construct: incubating human testicular microsomes; from tissue; host or cells: human testis, microsomes
T3 sequence (P05093 1-508): T1 sequence (P05093 1-508)
Experimental: as §1

[4] = biological target: T4, Human Prostatic 5α-Reductase (Homo sapiens, UniProt P31213); assay: Inhibition of human prostatic 5α-reductase (prostatic microsomes, [3H]testosterone); settings: for IC50: IC50 5α-reductase; for inhibition at 0.1 µM: read-out: % Inhibition of 5α-reductase, [I] 100 nM; for inhibition at 0.01 µM: read-out: % Inhibition of 5α-reductase, [I] 10 nM
T4 sequence (P31213 1-254): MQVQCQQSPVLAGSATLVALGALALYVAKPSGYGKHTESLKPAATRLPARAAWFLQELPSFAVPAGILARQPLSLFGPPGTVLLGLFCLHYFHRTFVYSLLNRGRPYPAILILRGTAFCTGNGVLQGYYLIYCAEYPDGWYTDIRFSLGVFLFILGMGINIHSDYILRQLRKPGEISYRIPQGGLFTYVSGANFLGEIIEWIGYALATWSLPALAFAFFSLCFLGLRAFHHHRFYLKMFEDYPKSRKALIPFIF

[5] = system: LNCaP human prostatic cancer cell line; assay: Androgen-dependent growth of LNCaP cells
Experimental: The ability of various inhibitors to reverse the stimulatory effect of testosterone on the growth of the LNCaP human prostatic cancer cell line was tested by comparing cell number in wells treated for 9 days with either drug vehicle only (control), 0.1 nM testosterone only, or 0.1 nM testosterone with inhibitor at 0.3, 1, 2.5, or 5 μM.

[6] = Table 1, NI = no inhibition, read-out: IC50 17α-OHase
[7] = Table 3, first figure of 17α-hydroxylase/lyase pair, read-out: IC50 17α-hydroxylase
[8] = first figure of pair, read-out: IC50 17α-hydroxylase
[9] = second figure of pair, read-out: IC50 C17,20-lyase

Cc1nc([C@H]2CC[C@H]3[C@@H]4CC=C5C[C@@H](O)CC[C@]5(C)[C@H]4CC[C@]23C)c[nH]1 [Compound L-4]
inhibition at 0.1 µM [1]: 13.8%
inhibition at 0.4 µM [1]: 41.9%
inhibition at 0.1 µM [2]: 70.2%
inhibition at 0.4 µM [2]: 100%
IC50 ([3]; one value for 17α-hydroxylase/lyase; NI = no inhibition; read-out: IC50 17α-hydroxylase/lyase (single entry)): 400 nM

Cc1nc([C@H]2CC[C@H]3[C@@H]4CC=C5C[C@@H](O)CC[C@]5(C)[C@H]4CC[C@]23C)co1 [Compound L-5]
inhibition at 0.1 µM ([1]; 100 nM, first figure of pair): 22.4%
inhibition at 0.4 µM ([1]; 400 nM, first figure of pair): 26.5%
inhibition at 0.1 µM ([2]; 100 nM, second figure of pair): 71.2%
inhibition at 0.4 µM ([2]; 400 nM, second figure of pair): 81.7%
inhibition of 17α-hydroxylase/C17,20-lyase (in words) ([3]; NI = no inhibition): less inhibition

C[C@]12CCC(=O)C=C1CC[C@@H]1[C@@H]2CC[C@]2(C)C(c3c[nH]cn3)=CC[C@@H]12 [Compound L-6, 17β-(4'-imidazolyl)-androsta-4,16-dien-3-one]
IC50 [1, 6]: 16 nM
IC50 [1, 7]: 15.6 nM
IC50 [1, 8]: 16 nM
IC50 [2, 9]: 2 nM
inhibition of 17α-hydroxylase/C17,20-lyase (in words) ([3]; NI = no inhibition): potent inhibitors
times more potent than ketoconazole ([3]; vs ketoconazole): 10-50 times
IC50 [4]: 522 nM
IC50 ([4]; Table 2): 522 nM
IC50 ([4]; Table 3, NI = no inhibition): 522 nM
inhibition of 5α-reductase (in words) ([4]; NI = no inhibition): potent inhibitors; also recorded: potent inhibition of 5α-reductase
inhibition at 0.1 µM [4]: 25.2%

C[C@@H](O)C1=CC[C@H]2[C@@H]3CC=C4C[C@@H](O)CC[C@]4(C)[C@H]3CC[C@]12C [Compound L-8]
inhibition at 0.4 µM [1]: 82.7%
inhibition at 0.1 µM [2]: 66.2%
inhibition at 0.4 µM [2]: 83.3%
IC50 ([3]; read-out: IC50 17α-hydroxylase/lyase (single entry); one value for 17α-hydroxylase/lyase; NI = no inhibition): 100 nM
inhibition at 0.01 µM [4]: 37.1%

C[C@@H](O)C1=CC[C@H]2[C@@H]3CCC4=CC(=O)CC[C@]4(C)[C@H]3CC[C@]12C [Compound L-10, 20β-hydroxy-pregna-4,16-dien-3-one]
inhibition at 0.1 µM [1]: 14.9%
inhibition at 0.4 µM [1]: 8.19%
inhibition at 0.1 µM [2]: 2.28%
inhibition at 0.4 µM [2]: 8.48%
reversal of DHT-stimulated LNCaP growth (in words) ([5]; 0.03 nM DHT): not dose-dependent
reversal of testosterone-stimulated LNCaP growth (in words) ([5]; 0.1 nM testosterone, inhibitor 0.3-5 μM, 9 days): dose-dependent reversal
IC50 [4]: 20 nM
IC50 ([4]; Table 2): 21 nM
IC50 ([4]; Table 3, NI = no inhibition): 21 nM
inhibition of 5α-reductase (in words) ([4]; NI = no inhibition): almost equipotent with finasteride
inhibition at 0.01 µM [4]: 97%
inhibition at 0.1 µM [4]: 90.7%

CC(=O)O[C@H]1CC[C@@]2(C)C(=CC[C@@H]3[C@@H]2CC[C@]2(C)C(c4c[nH]cn4)=CC[C@@H]32)C1 [Compound L-12]
inhibition at 0.1 µM ([1]; 100 nM, first figure of pair): 62.4%
inhibition at 0.4 µM ([1]; 400 nM, first figure of pair): 89.3%
IC50 [1, 6]: 75 nM
IC50 [1, 7]: 74.6 nM
IC50 [1, 8]: 75 nM
inhibition at 0.1 µM ([2]; 100 nM, second figure of pair): 82.1%
inhibition at 0.4 µM ([2]; 400 nM, second figure of pair): 97%
IC50 ([2]; Table 1, NI = no inhibition, CI = complete inhibition, read-out: IC50 C17,20 lyase): 25 nM
IC50 ([2]; Table 3, second figure of pair, CI = complete inhibition, read-out: IC50 lyase): 24.8 nM
IC50 [2, 9]: 25 nM
inhibition of 17α-hydroxylase/C17,20-lyase (in words) ([3]; NI = no inhibition): lower potency than I-49; also recorded: weaker inhibitor than I-49

CC(=O)C1=CC[C@H]2[C@@H]3CCC4=CC(=O)CC[C@]4(C)[C@H]3CC[C@]12C [Compound L-13, 16-dehydroprogesterone]
IC50 ([1]; IC50 17α-OHase): 73 nM
IC50 ([1]; IC50 17α-hydroxylase): 72.7 nM
IC50 ([1]; IC50 17α-hydroxylase (text)): 73 nM
IC50 ([2]; IC50 C17,20-lyase): 24 nM
IC50 ([2]; IC50 C17,20 lyase): 24 nM
IC50 ([2]; IC50 lyase): 23.7 nM
inhibition of 17α-hydroxylase/C17,20-lyase (in words) ([3]; NI = no inhibition): potent inhibitors of both enzymes
times more potent than ketoconazole ([3]; vs ketoconazole): 10-50 times
IC50 [4]: 22 nM
IC50 ([4]; Table 2): 22 nM
IC50 ([4]; Table 3, NI = no inhibition): 21.8 nM
inhibition of 5α-reductase (in words) ([4]; NI = no inhibition): potent inhibition of 5α-reductase; also recorded: almost equipotent with finasteride
inhibition at 0.1 µM [4]: 87.8%
inhibition at 0.4 µM ([4]; read-out: % Inhibition of 5α-reductase, [I] 400 nM): 96.4%
